# Measured values: patent EP0028279A1, “Phthalide-isoquinoline derivatives, their preparation and their use in medicaments” (CALAIRE CHIMIE S.A., priority 1979, dated 1981)
# Key:
# [1] = molecular target: T1, histidine décarboxylase de rein de cobaye (Cavia porcellus, UniProt H0WB71); assay: Kidney histidine decarboxylase activity after in vivo administration (method of Kosmicki et al.); conditions: guinea pigs sacrificed 5 hours after administration, reduction versus controls, read-out: Activité exprimée en % d'inhibition de l'enzyme
# T1 construct: le pourcentage de réduction de l'activité de l'enzyme du rein des animaux traités; from tissue; host or cells: guinea pig kidney
# T1 sequence (H0WB71 1-642): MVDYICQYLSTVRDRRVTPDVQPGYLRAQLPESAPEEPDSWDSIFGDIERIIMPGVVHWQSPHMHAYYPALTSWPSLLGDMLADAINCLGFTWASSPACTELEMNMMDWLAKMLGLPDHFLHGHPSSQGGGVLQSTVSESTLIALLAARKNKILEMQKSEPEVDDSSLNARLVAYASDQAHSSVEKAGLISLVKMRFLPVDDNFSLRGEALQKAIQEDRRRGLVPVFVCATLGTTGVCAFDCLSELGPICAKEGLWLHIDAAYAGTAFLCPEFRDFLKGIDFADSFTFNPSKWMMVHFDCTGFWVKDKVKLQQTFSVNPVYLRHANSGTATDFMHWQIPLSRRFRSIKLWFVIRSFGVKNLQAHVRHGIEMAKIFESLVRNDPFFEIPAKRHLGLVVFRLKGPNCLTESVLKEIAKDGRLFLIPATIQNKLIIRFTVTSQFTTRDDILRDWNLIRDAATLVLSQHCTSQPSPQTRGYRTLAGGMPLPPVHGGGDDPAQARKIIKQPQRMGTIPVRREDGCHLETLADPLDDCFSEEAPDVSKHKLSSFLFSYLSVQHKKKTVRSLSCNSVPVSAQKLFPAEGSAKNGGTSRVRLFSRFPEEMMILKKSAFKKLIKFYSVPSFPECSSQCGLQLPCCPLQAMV
# Source text: L'activité du composé 458L a été comparée à celle de la tritoqualine qui est à la connaissance des Demandeurs, le seul produit utilisé en thérapeutique pour cette propriété. La technique de mesure de l'activité de l'histidine décarboxylase de rein de cobaye a été décrite par B. Kosmicki et al (J. Pharmacol. Paris 1974 - 5 - 3 - 331 - 342). Les cobayes ont été sacrifiés cinq heures après l'administration des substances étudiées. Il a été déterminé par rapport aux témoins le pourcentage de réduction de l'activité de l'enzyme du rein des animaux traités. Les résultats obtenus sont rapportés dans le tableau ci-dessous : […]
# [2] = design: species or system souris; conditions: in vivo
# Source text: (§1) La toxicité a été déterminée de manière habituelle.
# [3] = Acute toxicity (LD50), oral, mouse; conditions: in vivo, read-out: DL 50 (the source's name)
# Source text: as §1
SMILES,inhibition at 10 mg/kg [1] [%],inhibition at 20 mg/kg [1] [%],inhibition at 40 mg/kg [1] [%],inhibition at 60 mg/kg [1] [%],toxicité chronique [2],LD50 [3] [mg/kg]
CCOc1c(N)c2c(c(OCC)c1OCC)C(C1c3c(cc(OC)c(OC)c3OC)CCN1C)OC2=O (stereo not shown) [458 L],14,21,31,41,bonne tolérance,~6000
"CCOc1c(N)c2c(c(OCC)c1OCC)C(C1c3c(cc4c(c3OC)OCO4)CCN1C)OC2=O (stereo not shown) [Tritoqualine, tritoqualine, reference compound]",10,20,20,22,,
